These results are taken from patent publication US20240391978A1, “APOLIPOPROTEIN FUSION PROTEINS FOR CELL-SPECIFIC IMMUNE REGULATION” (BIO-TRIP B.V., priority 2021, published 2024).

For assay [1], the system named is primary human monocytes. The assay can be described thus: In vitro inflammation inhibition, LPS-stimulated monocytes. The format is cell-based. On the procedure:
(§1) For pharmacological inhibition experiments, the monocytes were pre-incubated for 1 hour with one of the inhibitors described in Table 2 before addition of the training stimulus.
In vitro inflammation inhibition: Monocytes were adhered to a flat-bottom cell culture plate for 1 hour and washed with warm PBS to remove any non-adherent cells and cell debris. […] Following the initial 24-hour stimulation, the supernatants were collected and stored at −20° C. until further analysis with ELISA for IL6 and TNF.
(§2) Cytokine and lactate measurements: TNF, IL6, and IL1Ra were measured in cell culture supernatants using duoset ELISA kits (R&D systems), according to the manufacturer's instructions. For lactate measurements, a fluorometric assay was used. 30 μl sample, medium control, or known standard was added to a black 96-well plate. Then, 30 μl reaction mix (PBS pH 7.4, horse radish peroxidase (0.2 U/ml), lactate oxidase (2 U/ml), Amplex red (100 μM; Fisher scientific)) was added and the reaction was incubated for 20 minutes in the dark at RT. Immediately thereafter, fluorescence was measured at 530/25 nm and 590/35 nm. Gen5 software (v3.03, BioTek) was used in conjunction with Microsoft Excel to calculate cytokine and lactate concentrations in the original samples.

Assay [2] deals with Macrophages. Put plainly: Seahorse metabolic analyses of IL4-trained cells. The format is cell-based, human. The settings on record: IL4 training on day 0, measured on day 6. On the procedure:
Seahorse metabolic analyses: Macrophages were harvested as described above. The cells were resuspended in RPMI+++ and seeded into overnight-calibrated cartridges at 10^5 cells per well. After adhering for 1 hour, the medium was changed to assay medium (Agilent; see below) and the cells were incubated for 1 hour at 37° C. in ambient C02 levels. Oxygen consumption rates (OCR) and extracellular acidification rates (ECAR) were measured as proxies for glycolytic and […] metabolism, using a Seahorse XF Glycolysis Stress Test kit or a Seahorse XF Cell Mito Stress Test kit (both Agilent; measurements performed according to manufacturer's instructions).

Assay [3] has as its system primary human monocytes. Put plainly: In vitro model of trained immunity in primary human monocytes. It counts as cell-based.
Description: In vitro model of trained immunity in primary human monocytes: To induce trained immunity in primary human monocytes, a previously optimized and published method was used (Dominguez-Andres, J. et al. In vitro induction of trained immunity in adherent human monocytes. STAR Protoc 2, 100365, doi:10.1016/j.xpro.2021.100365 (2021); van Lier, D., Geven, C., Leijte, G. P. & Pickkers, P. Experimental human endotoxemia as a model of systemic inflammation. Biochimie 159, 99-106, doi:10.1016/j.biochi.2018.06.014 (2019)). Briefly: monocytes were adhered to a flat-bottom cell culture plate for 1 hour and washed with warm PBS to remove any non-adherent cells and cell debris. Then, they were stimulated (“trained”) for 24 hours with one of the stimuli detailed in Table 1, or medium only (“untrained” control).
as §1
Following the initial 24-hour stimulation, the cells were washed with warm PBS and warm cell culture medium was added. The monocytes were then allowed to rest and differentiate into macrophages for 5 days. On day 6, the induction of trained immunity was assessed. To this end, the cells were typically re-stimulated with LPS for an additional 24 hours to elicit cytokine production. The supernatants were collected and stored at −20° C. until further analysis, e.g. with ELISA for IL6 and TNF.
as §2

The test system of assay [4] is tolerant monocytes from the LPS-challenged volunteers. The assay can be described thus: Experimental human endotoxemia model, ex vivo tolerance reversal. The format is cell-based. The settings on record: ex vivo exposure 24 hours, re-stimulation on day 3. The text has this:
In vivo experimental human endotoxemia model and ex vivo analyses: Eight healthy (as confirmed by medical history, physical examination, and routine laboratory testing) male volunteers provided written informed consent to participate in experimental endotoxemia experiments conducted at the research unit of the intensive care department of the Radboud university medical center. All study procedures were approved by the local ethics committee (CMO Arnhem-Nijmegen, registration numbers NL71293.091.19 and 2019-5730), and were conducted in accordance with the latest version of the declaration of Helsinki.
A continuous endotoxin infusion regimen was employed, as is described in detail elsewhere (van Lier, D., Geven, C., Leijte, G. P. & Pickkers, P. Experimental human endotoxemia as a model of systemic inflammation. Biochimie 159, 99-106, doi:10.1016/j.biochi.2018.06.014 (2019)). […] A 3-lead ECG was recorded continuously throughout the experiment. […] Participants were monitored for 8 hours after the endotoxin loading dose after which they were discharged from the research unit. […]
Cytokine and lactate measurements: TNF, IL6, and IL1Ra were measured in cell culture supernatants using duoset ELISA kits (R&D systems), according to the manufacturer's instructions. […] Immediately thereafter, fluorescence was measured at 530/25 nm and 590/35 nm. […]

[5] abbreviates: Percoll-enriched monocytes, LPS 24 hours, IL4 25 ng/mL.

With IL4: recombinant human interleukin 4, in assay [1] (setting [5]), the “secretion of IL6” value is “potently inhibited”, the “secretion of IL-1Ra” value is listed as “secreted significantly more IL-1Ra compared to controls” and the “secretion of TNF” value is on record as “potently inhibited”. For the same substance, the baseline lactate production result in assay [1] (otherwise unstimulated monocytes vs medium control, data not shown) is “slightly, but significantly, lower baseline lactate production”. Besides, in assay [2], the “FCCP-triggered maximum respiration rate” value is “significantly augmented”, the basal glycolysis result is “trend towards higher basal glycolysis”, the baseline respiration rate entry was “significantly augmented” and the “oligomycin-triggered maximum glycolytic capacity” value is given as “significant increase”. Moreover, the “induction of trained immunity (TNF and IL6 after LPS re-stimulation on day 6)” value in assay [3] (24 hours training, 5-day rest, LPS 24 hours) is reported as “induced a trained immunity phenotype on day 6”. Besides, the “lactate at baseline of trained cells” value in assay [3] (IL4-trained cells, day 6, data not shown) was “produced more lactate at baseline”. Besides, the “effect on β-glucan-induced trained immunity” value in assay [3] (IL4 added in the first 24 hours with β-glucan) was “did not inhibit the training effect”. For the same substance, in assay [4], the “production of IL6 upon re-stimulation with LPS” value was “but not IL6” and the “production of TNF upon re-stimulation with LPS” value is recorded as “significantly improved”.
